One assay has as its system MKN45 cells. Put plainly: MKN45 cell proliferation assay (Cell-Titer-Glo, 120 h). It counts as cell-based. Conditions: for EC50: Homo sapiens, MKN-45, 120 h, Cell-Titer-Glo, read-out: MKN45 Cell Prolif. 120 hr (EC50); for MKN45 Cell Prolif. 120 hr (Ymin-Obs): minimal percent of DMSO control observed in the concentrations tested. How it is done: MKN45 cells were obtained from Celgene internal cell banks and cultured in RPMI complete media (RPMI-1640, 1× Penicillin/Streptomycin, 1× glutamine, 1× Sodium Pyruvate, Non-essential Amino Acids, 10% Fetal Bovine serum, all component from Thermo-Fisher). Compounds were dispensed into 384-well plates using an HP DE300 compound printer in triplicate with 8 compounds on each plate. For each compound, a 10-point dose response was printed at half-log dilutions starting at either 1 uM or 10 uM. The DMSO concentration was kept constant for a final assay concentration of 0.1% per well assuming 50 ul final media volume. Compound plates were sealed and frozen at −20 C until use.
For each assay batch, compound plates were thawed and allowed to reach room temperature, and cells were seeded at 400 cells per well in 50 ul complete RPMI media. After 120 hours of incubation at 37 C and 5% CO2, cells were lysed by addition of 25 μL of Cell-Titer-Glo Reagent (Promega Corporation, Madison, WI), as per manufacturer's instructions, protected from light, shaken for 45 minutes, and total luminescence read by a Perkin Elmer Envision plate reader. Total luminescence signal is linearly correlated with cell number remaining in the well.
Luminescence data was processed per plate by subtracting reagent-only “blank” well luminescence from all measured values and calculating a percent of DMSO control value for each treatment well. Then, to determine the half-maximal effective concentration (EC50) values for cell growth inhibition, a four parameter logistic model was fit to the data for each DMSO-normalized compound: Sigmoidal Dose-Response Model: (FIT=(A+((B−A)/1+((C/x)^D)))) where C is the inflection point (EC50), D is the Hill slope, and A and B are the low and high limits of the fit respectively. The lower limit of the fit (value A) is referred to as Ymin-calculated. The minimal percent of DMSO control that is observed in the concentrations tested for each compound is labeled as “Ymin-obs”, and was recorded and reported in the tables. Sigmoidal fit curves were processed and evaluated using Activity Base (IDBS, Alameda, CA).

In another assay the target is T1, WEE1 (Homo sapiens, UniProt P30291+Q96SW2).
T1 construct: C-terminal ePL-tagged (DiscoverX, Fremont, CA) full-length WEE1 expression construct; expressed in transfected cells; host or cells: LentiX-HEK293T (Invitrogen), lentiviral transduction; co-expressing GSPT1-GN (G576N, lacking the first 158 amino acids)
As to the kind of experiment: WEE1-ePL degradation assay (LentiX-WEE1-ePL-GSPT1-ND cells, InCELL Hunter luminescence, 4 h). The following applies: 293T-LentiX WEE1-ePL cells; for DC50: read-out: 293T-LentiX WEE1-ePL Degradation 4 hr (EC50). The class given is cell-based. How it is done: To generate LentiX-WEE1-ePL-GSPT1-ND cells for the WEE1 degradation assay, LentiX-HEK293T (Invitrogen) were transduced by lentivirus with a C-terminal ePL-tagged (DiscoverX, Fremont, CA) full-length WEE1 expression construct. […] Cells were selected and maintained in complete DMEM media (DMEM, 10% Heat Inactivated FBS, 400 μg/mL Geneticin, and 1 μg/mL puromycin at 37 C and 5% CO2). Cells were passaged every 3-4 days by reseeding 1×10^6 cells in a T150 flask.
Cells were dispensed into 384-well white plates (Corning #3570, NY) that were pre-spotted with compounds using an acoustic dispenser (Echo acoustic transfer system, Beckman Coulter Life Sciences, Carlsbad, CA) as a 10-point dose-response curve with a 3-fold dilution starting at either 1 uM or 10 uM and including a DMSO control. Twenty-five microliters of media containing 2500 cells for LentiX-oeWEE1-ePL was dispensed per well. Assay plates were incubated at 37° C. with 5% CO2 for four hours (WEE1) After incubation, 25 μL of the InCELL Hunter™ Detection Reagent Working Solution (DiscoverX, Fremont, CA) was added to each well and incubated at room temperature for 30 minutes protected from light. After 30 minutes, luminescence was read on a PHERAstar luminometer (Cary, NC).
To determine the half-maximal effective concentration (EC50) values for WEE1-ePL degradation, a four parameter logistic model was used: (Sigmoidal Dose-Response Model) (FIT=(A+((B−A)/1+((C/x)^D)))) where C is the inflection point (EC50), D is the Hill slope, and A and B are the low and high limits of the fit respectively). The lower limit of the fit (value A) is referred to as Ymin. […] The maximum limit constraint, Ymax, is similarly derived using DMSO control. The curves were processed and evaluated using Activity Base (IDBS, Alameda, CA).

The mark [1] stands for this setting: lower limit of the fit (0 = luciferase inhibitor, Ymax = DMSO control).
Where [2] appears, read: lower limit of the fit (Ymin=0 luciferase inhibitor, Ymax DMSO control).

Molecules are shown by their SMILES.

Regarding `COC[C@@H]1CCC[C@H]1c1ccc2cc(CN3CC[C@H](Oc4ccc5c(c4)CN(C4CCC(=O)NC4=O)C5=O)C3)ccc2n1` (stereo partly drawn) [3-(5-{[(3S)-1-({2-[(1R,2R)-2-(methoxymethyl)cyclopentyl]quinolin-6-yl}methyl)pyrrolidin-3-yl]oxy}-1-oxo-2,3-dihydro-1H-isoindol-2-yl)piperidine-2,6-dione], in the assay with MKN45 cells, the EC50 (as a rule, the concentration giving half of the maximal effect) is 16.6 nM and the “MKN45 Cell Prolif. 120 hr (Ymin-Obs)” value came to 12.33. With `COC[C@H]1CCC[C@H]1c1ccc2cc(CN3CC[C@H](Oc4ccc5c(c4)CN(C4CCC(=O)NC4=O)C5=O)C3)ccc2n1` (stereo partly drawn) [3-(5-{[(3S)-1-({2-[(1R,2S)-2-(methoxymethyl)cyclopentyl]quinolin-6-yl}methyl)pyrrolidin-3-yl]oxy}-1-oxo-2,3-dihydro-1H-isoindol-2-yl)piperidine-2,6-dione], in the assay with MKN45 cells, the EC50 is 12.3 nM and the “MKN45 Cell Prolif. 120 hr (Ymin-Obs)” value came to 15.33.

Take `COc1nc2ccccc2cc1CN1CC[C@H](Oc2ccc3c(c2)CN(C2CCC(=O)NC2=O)C3=O)C1` (stereo partly drawn) [3-(5-{[(3S)-1-[(2-methoxyquinolin-3-yl)methyl]pyrrolidin-3-yl]oxy}-1-oxo-2,3-dihydro-1H-isoindol-2-yl)piperidine-2,6-dione]: on WEE1 (setting [1]), the “293T-LentiX WEE1-ePL Degradation 4 hr (Ymin)” value stood at 45.09. For the same molecule, the DC50 at WEE1 was found to be 18.3 nM. Regarding `NCc1ccccc1COc1ccccc1CN1CC[C@H](Oc2ccc3c(c2)CN(C2CCC(=O)NC2=O)C3=O)C1` (stereo partly drawn) [3-(5-{[(3S)-1-[(2-{[2-(aminomethyl)phenyl]methoxy}phenyl)methyl]pyrrolidin-3-yl]oxy}-1-oxo-2,3-dihydro-1H-isoindol-2-yl)piperidine-2,6-dione], the “293T-LentiX WEE1-ePL Degradation 4 hr (Ymin)” value at WEE1 (setting [1]) is given as 89.91. In the case of `NCc1cccc(COc2ccccc2CN2CC[C@H](Oc3ccc4c(c3)CN(C3CCC(=O)NC3=O)C4=O)C2)c1` (stereo partly drawn) [3-(5-{[(3S)-1-[(2-{[3-(aminomethyl)phenyl]methoxy}phenyl)methyl]pyrrolidin-3-yl]oxy}-1-oxo-2,3-dihydro-1H-isoindol-2-yl)piperidine-2,6-dione], the “293T-LentiX WEE1-ePL Degradation 4 hr (Ymin)” value on WEE1 (setting [1]) is recorded as 87.63.

For `NCc1ccc(COc2ccccc2CN2CC[C@H](Oc3ccc4c(c3)CN(C3CCC(=O)NC3=O)C4=O)C2)cc1` (stereo partly drawn) [3-(5-{[(3S)-1-[(2-{[4-(aminomethyl)phenyl]methoxy}phenyl)methyl]pyrrolidin-3-yl]oxy}-1-oxo-2,3-dihydro-1H-isoindol-2-yl)piperidine-2,6-dione], the “293T-LentiX WEE1-ePL Degradation 4 hr (Ymin)” value on WEE1 (setting [1]) came out at 88.71. As for `NCc1ccccc1COc1cccc(CN2CC[C@H](Oc3ccc4c(c3)CN(C3CCC(=O)NC3=O)C4=O)C2)c1` (stereo partly drawn) [3-(5-{[(3S)-1-[(3-{[2-(aminomethyl)phenyl]methoxy}phenyl)methyl]pyrrolidin-3-yl]oxy}-1-oxo-2,3-dihydro-1H-isoindol-2-yl)piperidine-2,6-dione], the “293T-LentiX WEE1-ePL Degradation 4 hr (Ymin)” value at WEE1 (setting [1]) worked out at 74.31. On the same count and under the same terms, the same measure for `NCc1cccc(COc2cccc(CN3CC[C@H](Oc4ccc5c(c4)CN(C4CCC(=O)NC4=O)C5=O)C3)c2)c1` (stereo partly drawn) [3-(5-{[(3S)-1-[(3-{[3-(aminomethyl)phenyl]methoxy}phenyl)methyl]pyrrolidin-3-yl]oxy}-1-oxo-2,3-dihydro-1H-isoindol-2-yl)piperidine-2,6-dione]: 81.05; for `NCc1ccc(COc2cccc(CN3CC[C@H](Oc4ccc5c(c4)CN(C4CCC(=O)NC4=O)C5=O)C3)c2)cc1` (stereo partly drawn) [3-(5-{[(3S)-1-[(3-{[4-(aminomethyl)phenyl]methoxy}phenyl)methyl]pyrrolidin-3-yl]oxy}-1-oxo-2,3-dihydro-1H-isoindol-2-yl)piperidine-2,6-dione]: 87.

Take `O=C1CCC(N2Cc3cc(O[C@H]4CCN(Cc5ccc6nc(C7CCOCC7)ccc6c5)C4=O)ccc3C2=O)C(=O)N1` (stereo partly drawn) [3-(5-{[(3S)-1-{[2-(oxan-4-yl)quinolin-6-yl]methyl}-2-oxopyrrolidin-3-yl]oxy}-1-oxo-2,3-dihydro-1H-isoindol-2-yl)piperidine-2,6-dione]: the “293T-LentiX WEE1-ePL Degradation 4 hr (Ymin)” value on WEE1 (setting [2]) is on record as 80.98. For `O=C1CCC(N2Cc3cc(O[C@H]4CCN(Cc5cccc(OC(F)F)c5)C4)ccc3C2=O)C(=O)N1` (stereo partly drawn) [3-(5-{[(3S)-1-{[3-(difluoromethoxy)phenyl]methyl}pyrrolidin-3-yl]oxy}-1-oxo-2,3-dihydro-1H-isoindol-2-yl)piperidine-2,6-dione], the “293T-LentiX WEE1-ePL Degradation 4 hr (Ymin)” value on WEE1 (setting [1]) turned out to be 75.96. For the same molecule, on WEE1, the DC50 amounted to 196 nM. Turning to `O=C1CCC(N2Cc3ccc(O[C@H]4CCN(Cc5ccc6cnccc6c5)C4)cc3C2=O)C(=O)N1` (stereo partly drawn) [3-(6-{[(3S)-1-[(isoquinolin-6-yl)methyl]pyrrolidin-3-yl]oxy}-1-oxo-2,3-dihydro-1H-isoindol-2-yl)piperidine-2,6-dione], the “293T-LentiX WEE1-ePL Degradation 4 hr (Ymin)” value on WEE1 (setting [1]) turned out to be 80.095. Take `O=C1CC[C@H](N2Cc3cc(O[C@@H]4CN(Cc5ccc6nc(N7CCOCC7)ncc6c5)CC4(F)F)ccc3C2=O)C(=O)N1` [(3S)-3-(5-{[(3R)-4,4-difluoro-1-{[2-(morpholin-4-yl)quinazolin-6-yl]methyl}pyrrolidin-3-yl]oxy}-1-oxo-2,3-dihydro-1H-isoindol-2-yl)piperidine-2,6-dione]: in the assay on MKN45 cells, the EC50 is 17.8 nM and the “MKN45 Cell Prolif. 120 hr (Ymin-Obs)” value worked out at 10.03. For `O=C1CC[C@H](N2Cc3cc(O[C@H]4CCN(Cc5ccc6nc(C7CCOCC7)ccc6c5Cl)C4)ccc3C2=O)C(=O)N1` [(3S)-3-(5-{[(3S)-1-{[5-chloro-2-(oxan-4-yl)quinolin-6-yl]methyl}pyrrolidin-3-yl]oxy}-1-oxo-2,3-dihydro-1H-isoindol-2-yl)piperidine-2,6-dione], the “293T-LentiX WEE1-ePL Degradation 4 hr (Ymin)” value at WEE1 (setting [2]) turned out to be 28.82. Besides, on WEE1, the DC50 was found to be 2.8 nM. Turning to `O=C1CC[C@H](N2Cc3cc(O[C@H]4CCN(Cc5ccc6nc(N7CCOCC7)ncc6c5F)C4)ccc3C2=O)C(=O)N1` [(3S)-3-(5-{[(3S)-1-{[5-fluoro-2-(morpholin-4-yl)quinazolin-6-yl]methyl}pyrrolidin-3-yl]oxy}-1-oxo-2,3-dihydro-1H-isoindol-2-yl)piperidine-2,6-dione], the “293T-LentiX WEE1-ePL Degradation 4 hr (Ymin)” value on WEE1 (setting [2]) is on record as 32.24. Besides, the DC50 at WEE1 amounted to 3.27 nM. Regarding `O=C1CC[C@H](N2Cc3cc(O[C@H]4CCN(Cc5cc6ccc(C7CCOCC7)nc6cc5F)C4)ccc3C2=O)C(=O)N1` [(3S)-3-(5-{[(3S)-1-{[7-fluoro-2-(oxan-4-yl)quinolin-6-yl]methyl}pyrrolidin-3-yl]oxy}-1-oxo-2,3-dihydro-1H-isoindol-2-yl)piperidine-2,6-dione], on WEE1 (setting [2]), the “293T-LentiX WEE1-ePL Degradation 4 hr (Ymin)” value was 29.77. In addition, the DC50 on WEE1 stood at 5.82 nM. Take `C[C@H]1c2cc(O[C@H]3CCN(Cc4ccc5nc(N6CCOCC6)ncc5c4)C3)ccc2C(=O)N1[C@H]1CCC(=O)NC1=O` [(3S)-3-[(3S)-3-methyl-5-{[(3S)-1-{[2-(morpholin-4-yl)quinazolin-6-yl]methyl}pyrrolidin-3-yl]oxy}-1-oxo-2,3-dihydro-1H-isoindol-2-yl]piperidine-2,6-dione]: the “293T-LentiX WEE1-ePL Degradation 4 hr (Ymin)” value on WEE1 (setting [2]) is 37.95. Moreover, the DC50 on WEE1 is 1180 nM.

The values are drawn from US20240067632A1, “WEE1 Degrading Compounds and Uses Thereof” (Bristol-Myers Squibb Company, priority 2022, published 2024).
